Data as given in US8883740B2, “Peptides, compositions, and uses thereof” (Fundacao de Amparoa Pesquisa do Estado de Sao Paulo-Fapesp, priority 2008, dated 2014).
“And” between values parts separate entries of the source, which are not always exact repeats. Equal entries are not always repeated.

Assays:
[1] = system: endothelial cells (HUVEC); assay: Cell viability, MTT colorimetric assay under reduced serum; format: cell-based; conditions: 5 μg/ml; 48 hours; RPMI 1640 with 1% FBS; vs control without peptide
Procedure: Tests for cell viability (% viability) was realized utilizing reduced serum conditions and MTT (3-[4,5-Dimethylthiazol-2-yl]-2,5-Diphenyltetrazolium bromide) colorometric assay (Mosmann, 1983). The results are illustrated in FIGS. 1 to 3.
FIG. 1 illustrates the effect of peptides (5 μg/ml) on cell viability (% viability) of endothelial cells (HUVEC) when incubated together for 48 hours in RPMI 1640 with 1% FBS. The control has cells incubated in RPMI 1640 with 1% FBS (with no peptide).
FIG. 2 illustrates the effect of different concentrations of CNF011.05B on cell viability (% viability) of endothelial cells when incubated together for 120 hours in RPMI supplemented with 1% FBS.
FIG. 3 illustrates the effect of different concentrations of CNF011.05D on cell viability (% viability) of endothelial cells when incubated together for 48 hours in RPMI supplemented with 1% FBS.

punch wounds [2] = assay: Wound healing in pigs, 8 mm punch wounds, granulation tissue filling; format: in vivo, Domestic Yorkshire Crossbred pigs
Procedure: Levels of granulation tissue formation—a marker of the proliferative phase of Healing (Cascade)—were assessed in punch wounds after daily administrations of CNF011.05D or positive control (Bacaplermin gel 0.01%). The wounded animals were Domestic Yorkshire Crossbred pigs of 20 weeks of age, which were anesthesized and operated on the dorsal side of their backs. Following clipping of hair and scrub sterilization, 8 full thickness wounds were made in each pig using an 8 mm biopsy punch.
Following wounding and drying with sterile gauze, the wounds were subjected to application with different treatments (see Table 5 and 6) followed by bandaging. Long-term postoperative monitoring included daily inspection of the surgical sites for 14 days. The daily inspection included cleansing of the wounds, reapplication of the same treatments—Standard Care or Positive Control or CNF011.05D (1×) or CNF011.05D (100×)—followed by rebandaging. […]

Human fibroblasts [3] = assay: Production of tenascin by fibroblasts, indirect immunofluorescence; format: cell-based; conditions: 0.35 μg; 4 days; vs saline; p<0.001
Procedure: (§1) Human fibroblasts were acquired from ear lobe skin fragments (0.5×0.5 cm) from 5 normal African-Brazilian female donors, with age ranging from 10 to 40 years old, respectively called 2/05, 3/05, 4/05, 6/05 and 8/05. The donors were submitted to excisional biopsies in a surgical environment after free voluntary consent.
(§2) Cells from the 6th subculture were placed in sterile culture plates and incubated with CNF011.05D at concentrations of 0.35 μg and 5 μg in culture medium for 4 days. The control group consisted of fibroblasts cultured under the same conditions, in which saline solution (a solvent of CNF011.05D) was added in the place of CNF011.05D.
(§3) Indirect immunofluorescence was performed using (1) Anti-fibronectin (cellular) mAb OR anti-human tenascin mAb (Sigma-USA); and (2) Alexa Fluor 488 (Molecular Probes-USA).
Samples tested are CN (cells treated with saline), TN-0.35 (cells treated with CNF011.05D at 0.35 μg), and TN-5 μg (cells treated with CNF011.05D at 5 μg).

collagen in the dermis = assay: Production of collagen in the dermis after subcutaneous doses; format: in vivo
Source text: Levels of collagen were examined after different administrations of CNF011.05D: a single subcutaneous dose, two subcutaneous doses, and four subcutaneous doses.

Human fibroblasts [4] = assay: Production of fibronectin by fibroblasts, indirect immunofluorescence; format: cell-based; conditions: 0.35 μg; 4 days; vs saline; p<0.001
Procedure: as §1, §2, §3
Samples tested are FBN-CN (cells treated with saline), FBN-0.35 (cells treated with CNF011.05D at 0.35 μg), and FBN-5 μg (cells treated with CNF011.05D at 5 μg).

Neutrophils [5] = assay: Neutrophil viability by flow cytometry (annexin V / propidium iodide), reduced serum; format: cell-based, Wistar Rats; conditions: reduced serum medium (1%), 24 hours
Procedure: (§4) Neutrophils or primary cultured endothelial cells from Wistar Rats were cultured in reduced serum medium (1%) in presence of CNF011.05D (3.0 μm/mL) and/or […] L-NAME, an inhibitor of NO synthase (and accordingly, an inhibitor of NO and resulting metabolite NO2 production). After 24 hours, cell viability was measured using flow cytometry analysis with FITC annexin V (1:500) and propidium iodide (10 μl of 50 mg/ml). The viability of both neutrophils (FIG. 4) and primary endothelial cells (FIG. 5) was increased with the peptide CNF011.05D alone, and this increase was diminished in presence of L-NAME.

punch wounds [6] = assay: Wound healing in rats, 6 mm punch wounds; format: in vivo, Wistar rats
Procedure: Size and microscopic appearance of punch wounds was assessed in rats after a single dose of CNF011.05D. The rats were Wistar rats of 6-to-8 weeks of age, which were anesthesized and operated on the dorsal side of their backs. Following clipping of hair and scrub sterilization, wounds were made in each rat using a 6 mm biopsy punch. Following wounding and drying with sterile gauze, wounds were subjected to (1) bandaging (Standard Care) or (2) application of CNF011.05D (235 nM in saline) followed by bandaging. Wounds evaluated at Days 3, 7, 14, and 21 were assessed by veterinarians and documented as to whether the wound was healing normally for the day post-wounding, and the size of the wound in cm^2.

Neutrophils [7] = assay: NO2 production by neutrophils, Griess reaction; format: cell-based, Wistar Rats; conditions: 1.5 μg/ml; 18 hours; absorbance at 550 nm
Procedure: Neutrophils were cultured for 18 hours with CNF011.05D (1.5 μg/ml), and production of NO metabolite NO2 secreted into culture was assessed by use of the Griess reaction, and measurement of absorbance at 550 nm.

[8] = system: primary cultured endothelial cells; assay: Primary endothelial cell viability by flow cytometry (annexin V / propidium iodide), reduced serum; format: cell-based, Wistar Rats; conditions: reduced serum medium (1%), 24 hours
Procedure: as §4

[9] = 1x: 1 ml at 1.57 μg/ml in saline, daily, six wounds, Day 5
[10] = 1x: 1 ml at 1.57 μg/ml in saline, daily, six wounds, Day 7
[11] = 100x: 1 ml at 157 μg/ml in saline, daily, six wounds, Day 7
[12] = CNF011.05D 3.0 μm/mL plus 1M L-NAME

## APLWILSTDYDNYAIGYSC [CNF011.05B]
[1]
  cell viability (% viability): augment

## YAIGYSCKDYK [CNF011.05D]
Punch wounds [2]; 1x: 1 ml at 1.57 μg/ml in saline, daily, six wounds, Day 1
  Granulation Tissue Filling No (wounds): 6
Punch wounds [2]; [9]
  Granulation Tissue Filling No (wounds): 3
  Granulation Tissue Filling Yes (wounds): 3
Punch wounds [2]; [10]
  Granulation Tissue Filling No (wounds): 2
  Granulation Tissue Filling Yes (wounds): 4
Punch wounds [2]; 1x: 1 ml at 1.57 μg/ml in saline, daily, six wounds, Day 10
  Granulation Tissue Filling Yes (wounds): 6
Punch wounds [2]; 1x: 1 ml at 1.57 μg/ml in saline, daily, six wounds, Day 14
  Granulation Tissue Filling Yes (wounds): 6
Punch wounds [2]; 1x: 1 ml ointment at 1.57 μg/ml in Hydroxyethyl cellulose/Glycerin (20%/80%), two wounds, Day 1
  Granulation Tissue Filling No (wounds): 2
Punch wounds [2]; 1x: 1 ml ointment at 1.57 μg/ml in Hydroxyethyl cellulose/Glycerin (20%/80%), two wounds, Day 5
  Granulation Tissue Filling Yes (wounds): 2
Punch wounds [2]; 1x: 1 ml ointment at 1.57 μg/ml in Hydroxyethyl cellulose/Glycerin (20%/80%), two wounds, Day 7
  Granulation Tissue Filling Yes (wounds): 2
Punch wounds [2]; 1x: 1 ml ointment at 1.57 μg/ml in Hydroxyethyl cellulose/Glycerin (20%/80%), two wounds, Day 10
  Granulation Tissue Filling Yes (wounds): 2
Punch wounds [2]; 1x: 1 ml ointment at 1.57 μg/ml in Hydroxyethyl cellulose/Glycerin (20%/80%), two wounds, Day 14
  Granulation Tissue Filling Yes (wounds): 2
Punch wounds [2]; 100x: 1 ml at 157 μg/ml in saline, daily, six wounds, Day 1
  Granulation Tissue Filling No (wounds): 6
Punch wounds [2]; 100x: 1 ml at 157 μg/ml in saline, daily, six wounds, Day 5
  Granulation Tissue Filling No (wounds): 6
Punch wounds [2]; [11]
  Granulation Tissue Filling No (wounds): 5
  Granulation Tissue Filling Yes (wounds): 1
Punch wounds [2]; 100x: 1 ml at 157 μg/ml in saline, daily, six wounds, Day 10
  Granulation Tissue Filling Yes (wounds): 6
Punch wounds [2]; 100x: 1 ml at 157 μg/ml in saline, daily, six wounds, Day 14
  Granulation Tissue Filling Yes (wounds): 6
Punch wounds [2]; 100x: 1 ml ointment at 157 μg/ml in Hydroxyethyl cellulose/Glycerin (20%/80%), two wounds, Day 1
  Granulation Tissue Filling No (wounds): 2
Punch wounds [2]; 100x: 1 ml ointment at 157 μg/ml in Hydroxyethyl cellulose/Glycerin (20%/80%), two wounds, Day 5
  Granulation Tissue Filling Yes (wounds): 2
Punch wounds [2]; 100x: 1 ml ointment at 157 μg/ml in Hydroxyethyl cellulose/Glycerin (20%/80%), two wounds, Day 7
  Granulation Tissue Filling Yes (wounds): 2
Punch wounds [2]; 100x: 1 ml ointment at 157 μg/ml in Hydroxyethyl cellulose/Glycerin (20%/80%), two wounds, Day 10
  Granulation Tissue Filling Yes (wounds): 2
Punch wounds [2]; 100x: 1 ml ointment at 157 μg/ml in Hydroxyethyl cellulose/Glycerin (20%/80%), two wounds, Day 14
  Granulation Tissue Filling Yes (wounds): 2
Human fibroblasts [3]
  tenascin production by fibroblasts: significant difference
Collagen in the dermis; four subcutaneous doses 0.30 μg (total 1.20), 4 weeks after dose
  Treated Skin Collagen (%): 37.60% and 34.94%
Collagen in the dermis; single subcutaneous dose 0.30 μg, 1 week after dose
  Treated Skin Collagen (%): 41.20% and 57.15%
Collagen in the dermis; single subcutaneous dose 0.30 μg, 2 weeks after dose
  Treated Skin Collagen (%): 43.78% and 39.20%
Collagen in the dermis; single subcutaneous dose 0.30 μg, 12 weeks after dose
  Treated Skin Collagen (%): 29.57% and 27.22%
Collagen in the dermis; two subcutaneous doses 0.30 μg one week apart (total 0.60), 2 weeks after dose
  Treated Skin Collagen (%): 44.19% and 37.91%
Collagen in the dermis; two subcutaneous doses 0.30 μg one week apart (total 0.60), 12 weeks after dose
  Treated Skin Collagen (%): 39.23% and 47.33%
Human fibroblasts [4]
  production of fibronectin by fibroblasts: significant enhancement
Neutrophils [5]; [12]
  increase of viability of neutrophils in presence of L-NAME: diminished
Neutrophils [5]; CNF011.05D alone 3.0 μm/mL
  viability of neutrophils: increased
Punch wounds [6]; 235 nM in saline, single dose, then bandaging, Day 3, 8 rats per timepoint
  Day 3 Size of punch wounds: 0.200 cm^2
Punch wounds [6]; 235 nM in saline, single dose, then bandaging, Day 7, 8 rats per timepoint
  Day 7 Size of punch wounds: 0.084 cm^2
Punch wounds [6]; 235 nM in saline, single dose, then bandaging, Day 14, 8 rats per timepoint
  Day 14 Size of punch wounds: 0.053 cm^2
Punch wounds [6]; 235 nM in saline, single dose, then bandaging, Day 21, 8 rats per timepoint
  Day 21 Size of punch wounds: Scar **
Punch wounds [6]; 21 days, in comparison to Standard Care (negative control)
  scar size and color: scars of reduced size and color
Neutrophils [7]
  production of NO2: increases
[1]
  cell viability (% viability): augment
[8]; [12]
  increase of viability of primary endothelial cells in presence of L-NAME: diminished
[8]; CNF011.05D alone 3.0 μm/mL
  viability of primary endothelial cells: increased
